Measured values taken from paper PMC7948422, “Repurposing p97 inhibitors for chemical modulation of the bacterial ClpB–DnaK bichaperone system” (The Journal of Biological Chemistry, 2020).
“Also recorded” adds a separate entry of the source.

Tests used:
monomeric ClpB = biological target: monomeric ClpB; parameters: method as in PMID 10982797; conditions: read-out: Kd of monomeric ClpB toward ATP; cited from earlier work
wt ClpB = biological target: T1, wt ClpB (Escherichia coli, UniProt P63284); assay: Surface plasmon resonance, immobilized wt ClpB; format: binding; conditions: SPR, preliminary; read-out: dissociation constant, control titration of immobilized ClpB
T1 construct: made in house
Protocol: ClpB, DnaK, and the NBD of DnaK were extensively dialyzed against the SPR buffer (20-mM Hepes, pH 7.4, 150-mM NaCl, 20-mM MgCl2, 1-mM EDTA, 1-mM DTT). After dialysis, the protein concentration was determined by the Bradford method. The DBeQ–protein interactions were studied using a Biacore T200 instrument (GE Healthcare) at 25 °C. The proteins were diluted to 300 μg/ml in 10-mM sodium acetate buffer (pH 5 for ClpB DnaK or pH 4 for NBD) and immobilized on HC1500M sensor chips (Xantec) by standard amine coupling chemistry as described previously ([70]). A reference flow cell was created by ethyl(dimethylaminopropyl) carbodiimide/N-hydroxysuccinimide activation followed by quenching with 1 M ethanolamine (pH 9.0). Solvent correction curves were obtained at the beginning and end and after every 50 injection cycles by injecting varying DMSO concentrations (4.0, 4.4, 4.6, 4.8, 5.0, 5.2, 5.4, and 5.9% [v/v]). All experiments were performed using a flow rate of 30 μl/min.
Binding isotherms were obtained with the ligand diluted to different concentrations in the SPR running buffer HBSMTD (20-mM Hepes, pH 7.4, 140-mM NaCl, 20-mM MgCl2, 5% (v/v) DMSO, 0.005% (v/v) Tween-20). Replicate injections were performed for all samples, and a buffer-only injection was performed for every 12 injection cycles. To test the structural integrity of ClpB after immobilization on the sensor chips, we performed control titrations with ATPγS and adenosine. The dissociation constants determined from those experiments were ∼20 μM for ATPγS and ∼2 mM for adenosine. […] Moreover, the immobilized ClpB discriminated between a nucleotide analog and a nucleoside, which indicated an adequate structural integrity of ClpB on the sensor chips.
The resulting sensorgrams were analyzed using Biacore T200 Evaluation Software v3.0 according to the following procedure. Solvent correction curves were generated and applied to all data sets, and all sensorgrams were double-referenced by subtracting the most recent buffer blank injection. The signal immediately before injection stop of these corrected sensorgrams was treated as the binding response. GraphPad Prism was used for nonlinear least-squares fitting of the model assuming either noncooperative or cooperative binding of DBeQ to DnaK and ClpB, respectively.

p97 = system: p97; parameters: method as in PMID 25685910; conditions: cited from earlier work
E. coli ClpB = biological target: T2, E. coli ClpB (Escherichia coli, UniProt P63284); format: biochemical; conditions: 100 μM compound, 37 °C; for inhibition of the basal ClpB ATPase: no casein; for inhibition of the ClpB ATPase in the presence of casein: with κ-casein
T2 construct: made in house
Protocol: To determine the ATPase activity, ClpB was diluted to 28 μg/ml (49-nM hexamer) in buffer C (50-mM Tris-HCl, pH 7.4, 20-mM MgCl2, 1-mM EDTA, 0.5-mM tris(2-carboxyethyl)phosphine [TCEP]). In some experiments, the ClpB solution was supplemented with 17.4 μg/ml (10 μM) κ-casein. The ClpB aliquots (18 μl) were mixed with 1 μl of the investigated compounds at different concentrations in 100% DMSO or with DMSO as a control. A sample without ClpB was used as a baseline control. After a 10-min preincubation at 37 or 45 °C, the ATP hydrolysis reaction was initiated by adding 1 μl of 100-mM ATP. The samples were incubated for 60 min (basal ClpB activity in the absence of κ-casein) or 15 min (in the presence of κ-casein) at 37 °C or 30 min at 45 °C in the absence of casein. For the E678Q ClpB variant, the incubation time in the presence of κ-casein was 60 min. After incubation, 15 μl of each sample was mixed with 200 μl of the ammonium molybdate/malachite green reagent ([67]) dispensed into a 96-well plate, followed by an addition of 30 μl of 34% sodium citrate ([68]). The plate was agitated inside a Synergy H1 reader (BioTek, Winooski, VT) for 15 min at room temperature, and the samples’ absorbance was measured at 630 nm. The readouts for ClpB-containing samples were corrected for absorbance of samples without ClpB, to account for nonenzymatic production of inorganic phosphate. A standard curve obtained with different inorganic phosphate concentrations was used to determine the amount of phosphate produced from ATP in the presence of ClpB.

T2 sequence (P63284 whole entry): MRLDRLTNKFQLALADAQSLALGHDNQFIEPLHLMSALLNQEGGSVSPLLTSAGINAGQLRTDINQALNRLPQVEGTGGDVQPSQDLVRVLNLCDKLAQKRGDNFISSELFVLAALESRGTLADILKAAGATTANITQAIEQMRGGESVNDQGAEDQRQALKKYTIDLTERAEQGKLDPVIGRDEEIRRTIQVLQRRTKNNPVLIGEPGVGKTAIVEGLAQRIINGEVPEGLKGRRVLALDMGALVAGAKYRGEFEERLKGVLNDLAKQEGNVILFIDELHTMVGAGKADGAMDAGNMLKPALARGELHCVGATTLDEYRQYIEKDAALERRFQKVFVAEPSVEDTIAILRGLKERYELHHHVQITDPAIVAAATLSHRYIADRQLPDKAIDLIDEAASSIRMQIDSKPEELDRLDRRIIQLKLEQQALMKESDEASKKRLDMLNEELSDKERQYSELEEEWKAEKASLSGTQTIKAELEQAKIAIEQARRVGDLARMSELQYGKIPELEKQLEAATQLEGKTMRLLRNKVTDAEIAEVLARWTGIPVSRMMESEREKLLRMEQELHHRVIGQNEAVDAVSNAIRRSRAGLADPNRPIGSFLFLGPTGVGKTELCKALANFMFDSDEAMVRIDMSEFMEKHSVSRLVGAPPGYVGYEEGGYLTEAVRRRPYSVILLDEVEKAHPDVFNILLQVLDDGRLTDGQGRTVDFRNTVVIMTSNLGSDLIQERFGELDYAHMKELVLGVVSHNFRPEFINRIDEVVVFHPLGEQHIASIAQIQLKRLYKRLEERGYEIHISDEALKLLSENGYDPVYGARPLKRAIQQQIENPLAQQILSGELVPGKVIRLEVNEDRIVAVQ
T1 sequence (P63284 whole entry): as above

| SMILES | Kd (monomeric ClpB) | Kd (wt ClpB) | IC50 (p97) | inhibition of the basal ClpB ATPase (E. coli ClpB) | inhibition of the ClpB ATPase in the presence of casein (E. coli ClpB) |
| --- | --- | --- | --- | --- | --- |
| Nc1ncnc2c1ncn2[C@@H]1O[C@H](COP(=O)(O)OP(=O)(O)OP(=O)(O)O)[C@@H](O)[C@H]1O [ATP] | > 1000 µM |  |  |  |  |
| Nc1ncnc2c1ncn2[C@@H]1O[C@H](CO[P@](=O)(O)O[P@](=O)(O)O[P@@](=O)(O)S)[C@@H](O)[C@H]1O [ATPγS] |  | ~20 µM |  |  |  |
| COc1cccc2c(NCc3ccccc3)nc(-n3c(N)nc4ccccc43)nc12 [ML240] |  |  | ~0.1 µM | None of the above compounds, except C3, showed a significant inhibition | loss of potency toward ClpB; also recorded: only C3 and DBeQ strongly inhibited |
| Cc1cc(OCc2nnc(SC3CCCC3)n2-c2cccnc2)ccc1-c1ccc(S(C)(=O)=O)cc1 [NMS-873] |  |  | ~0.02 µM | None of the above compounds, except C3, showed a significant inhibition | only C3 and DBeQ strongly inhibited |
| Nc1ncnc2c1ncn2[C@@H]1O[C@H](CO)[C@@H](O)[C@H]1O [adenosine] |  | ~2000 µM |  |  |  |
